# Experimental data: patent US8785501B2 (Duquesne University of the Holy Spirit, priority 2009, dated 2014)
# Test system: mammary estrogen-regulated genes (lactoferrin and progesterone receptor)
# Test: Expression of estrogen-regulated genes in mammary tissue of ovariectomized FVB/n mice
# Type: in vivo, mouse
# Conditions: FVB/n OVX mice, n=4, data not shown; versus control (vehicle) and melatonin alone
# From the text: Previous studies with melatonin or tamoxifen alone were done in MMTV/neu mice. MMTV/neu mice spontaneously develop HER2/neu mammary cancer beginning at 5 months of […] and have a maximal incidence of >90% after 14 months of age. In this mouse model, tamoxifen and melatonin alone can influence mammary tumor development, growth and/or metastatic progression.
compound,measurement,value
CC/C(=C(\c1ccccc1)c1ccc(OCCN(C)C)cc1)c1ccccc1 [tamoxifen],progesterone receptor (PR) RNA levels in mammary tissue,significantly different than the control
